Drawing on patent publication US20250188084A1, “COMPOUNDS AND METHODS FOR MODULATING CDK9 ACTIVITY” (KRONOS BIO, INC., priority 2020, published 2025), this text covers DC50 for 27 compounds.

By DC50 is commonly meant the concentration giving 50% degradation.

In this experiment the target is T1, CDK9 (Homo sapiens, UniProt P50750).
T1 construct: NCIH211 cells with endogenously tagged N-terminal CDK9-HiBit; endogenous in cells; host or cells: NCIH211 cells (endogenous CDK9 locus tagged with HiBit)
T1 sequence (P50750 whole entry): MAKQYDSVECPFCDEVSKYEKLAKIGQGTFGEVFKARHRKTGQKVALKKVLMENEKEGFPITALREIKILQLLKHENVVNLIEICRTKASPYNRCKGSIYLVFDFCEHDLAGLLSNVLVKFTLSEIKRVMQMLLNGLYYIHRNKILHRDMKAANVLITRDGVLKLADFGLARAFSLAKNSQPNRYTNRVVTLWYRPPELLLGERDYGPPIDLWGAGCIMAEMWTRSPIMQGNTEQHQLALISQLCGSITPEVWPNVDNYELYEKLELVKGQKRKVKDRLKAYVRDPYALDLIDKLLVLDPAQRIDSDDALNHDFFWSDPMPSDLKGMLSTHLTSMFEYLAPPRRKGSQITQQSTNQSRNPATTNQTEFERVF
T1 sequence (O60563 whole entry partner): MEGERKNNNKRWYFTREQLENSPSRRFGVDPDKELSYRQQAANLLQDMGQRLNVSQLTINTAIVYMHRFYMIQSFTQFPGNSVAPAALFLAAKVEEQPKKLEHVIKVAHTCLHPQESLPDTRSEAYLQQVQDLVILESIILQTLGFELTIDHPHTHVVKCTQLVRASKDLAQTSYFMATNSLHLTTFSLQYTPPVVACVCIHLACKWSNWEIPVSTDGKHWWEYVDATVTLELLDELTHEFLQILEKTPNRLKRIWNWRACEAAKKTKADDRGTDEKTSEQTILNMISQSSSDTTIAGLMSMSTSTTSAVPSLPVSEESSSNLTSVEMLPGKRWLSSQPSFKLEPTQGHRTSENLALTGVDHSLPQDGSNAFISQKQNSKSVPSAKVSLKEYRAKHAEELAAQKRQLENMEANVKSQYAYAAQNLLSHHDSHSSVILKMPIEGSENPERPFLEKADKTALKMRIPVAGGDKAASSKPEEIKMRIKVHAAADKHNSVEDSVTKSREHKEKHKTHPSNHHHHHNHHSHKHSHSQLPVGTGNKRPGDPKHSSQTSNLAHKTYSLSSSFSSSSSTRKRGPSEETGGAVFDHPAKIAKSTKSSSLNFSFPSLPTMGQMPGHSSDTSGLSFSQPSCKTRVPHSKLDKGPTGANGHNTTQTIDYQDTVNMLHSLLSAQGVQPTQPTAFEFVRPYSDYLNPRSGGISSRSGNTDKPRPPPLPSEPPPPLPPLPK
Put plainly: CDK9 degradation by HiBit assay, NCIH211 cells. It is filed as cell-based. As to conditions: NCIH211 cells with endogenously tagged N-terminal CDK9-HiBit, 24 hours incubation; read-out: HiBit-NCIH211.2 DC50. Here is the method: Exemplary compounds of the invention were tested for degradation of CDK9. The compounds were tested in 10-dose DC50 duplicate mode with a 3-fold serial dilution starting at 10 μM by HiBit assay (Promega, Inc) as a direct measurement of CDK9 presence, with incubation time of 24 hours using either NCIH211 cells with endogenously tagged N-terminal CDK9-HiBit or NCIH1048 cells with endogenously tagged N-terminal CDK9-HiBit. A control compound (THAL-SNS-032, CAS 2139287-33-3) was tested in 10-dose DC50 mode with 3-fold serial dilution starting at 10 μM. Data was normalized to positive (medium only) and negative (cells with no treatment) controls and curve fits were analyzed with CDK9 as % response vs. log [compound concentration] using a 4-parameter logistic model by GraphPad software. For Table 2: A is <100, B is <1000 C is <10,000, D is >10,000 and ND is Not Determined.
On the technique in general: HiBiT is a short tag that completes a luciferase, so light tracks the accessible tagged protein.
As for `CCC(CC)c1cc(N[C@H]2CC[C@H](NC(=O)COCCOCCNC(=O)COc3cccc4c3C(=O)N(C3CCC(=O)NC3=O)C4=O)C2)n2ncc(Cl)c2n1` (stereo partly drawn) [Compound 4.0, N-[(1S,3S)-3-[[3-chloro-5-(1-ethylpropyl)pyrazolo[1,5-a]pyrimi-din-7-yl]amino]cyclopentyl]-2-[2-[2-[[2-[2-(2,6-dioxo-3-piperidyl)-1,3-dioxo-isoindolin-4-yl]oxyacetyl]amino]ethoxy]ethoxy]acetamide], the DC50 is above 10 µM.

For `CCC(CC)c1cc(N[C@H]2CC[C@H](NCc3cn(CCOCCOCC(=O)N[C@H](C(=O)N4C[C@H](O)C[C@H]4C(=O)NCc4ccc(-c5scnc5C)cc4)C(C)(C)C)nn3)C2)n2nccc2n1` [Compound 34.0], the half-maximal degradation concentration (DC50) was above 10 µM. Then `CCC(CC)c1cc(N[C@H]2CC[C@H](NCCOCCOCCn3cc(CNc4cccc5c4C(=O)N(C4CCC(=O)NC4=O)C5=O)nn3)C2)n2ncc(Cl)c2n1` (stereo partly drawn) [Compound 15.0], with below 10 µM; and `CCC(CC)c1cc(N[C@H]2CC[C@H](NCC(=O)NCCCc3cn(CCOCCOCCOCCOCC(=O)N[C@H](C(=O)N4C[C@H](O)C[C@H]4C(=O)NCc4ccc(-c5scnc5C)cc4)C(C)(C)C)nn3)C2)n2ncc(Cl)c2n1` [Compound 41.0], with above 10 µM; and `CCC(CC)c1cc(N[C@H]2CC[C@H](NCC(=O)NCCCc3cn(CCOCCNc4cccc5c4C(=O)N(C4CCC(=O)NC4=O)C5=O)nn3)C2)n2ncc(Cl)c2n1` (stereo partly drawn) [Compound 23.0], with below 10 µM.

Consider `CCC(CC)c1cc(N[C@H]2CC[C@H](NCC(=O)NCc3cn(CCOCCOCC(=O)N[C@H](C(=O)N4C[C@H](O)C[C@H]4C(=O)NCc4ccc(-c5scnc5C)cc4)C(C)(C)C)nn3)C2)n2nccc2n1` [Compound 26.0], for which the half-maximal degradation concentration (DC50) is above 10 µM. Then `CCC(CC)c1cc(N[C@H]2CC[C@H](NCCOCCOCCn3cc(COCCOCC(=O)N[C@H](C(=O)N4C[C@H](O)C[C@H]4C(=O)NCc4ccc(-c5scnc5C)cc4)C(C)(C)C)nn3)C2)n2nccc2n1` [Compound 14.0, (2S,4R)-4-hydroxy-N-[[4-(4-methylthiazol-5-yl)phenyl]methyl]-1-[(2S)-3,3-dimethyl-2-[[2-[2-[[1-[2-[2-[2-[[(1S,3S)-3-[[5-(1-ethylpropyl)pyrazolo[1,5-a]pyrimidin-7-yl]amino]cyclopentyl]amino]ethoxy]ethoxy]ethyl]triazol-4-yl]methoxy]ethoxy]acetyl]amino]butanoyl]pyrrolidine-2-carboxamide], with above 10 µM; and `CCC(CC)c1cc(N[C@H]2CC[C@H](NCc3cn(CCOCCOCCOCC(=O)N[C@H](C(=O)N4C[C@H](O)C[C@H]4C(=O)NCc4ccc(-c5scnc5C)cc4)C(C)(C)C)nn3)C2)n2nccc2n1` [Compound 35.0], with above 10 µM; and `CCC(CC)c1cc(N[C@H]2CC[C@H](NC(=O)COCCOCCOCCNC(=O)COc3cccc4c3C(=O)N(C3CCC(=O)NC3=O)C4=O)C2)n2ncc(Cl)c2n1` (stereo partly drawn) [Compound 3.0, N-[(1S,3S)-3-[[3-chloro-5-(1-ethylpropyl)pyrazolo[1,5-a]pyrimidin-7-yl]amino]cyclopentyl]-2-[2-[2-[2-[[2-[2-(2,6-dioxo-3-piperidyl)-1,3-dioxo-isoindolin-4-yl]oxyacetyl]amino]ethoxy]ethoxy]ethoxy]acetamide], with above 10 µM. With `CCC(CC)c1cc(N[C@H]2CC[C@H](NCc3cn(CCOCCOCCOCCOCCOc4cc(-c5scnc5C)ccc4CNC(=O)[C@@H]4C[C@@H](O)CN4C(=O)[C@H](C(C)C)N4Cc5ccccc5C4=O)nn3)C2)n2nccc2n1` [Compound 40.0], the 50% degradation concentration (DC50) was above 10 µM. As for `CCC(CC)c1cc(N[C@H]2CC[C@H](NCCOCCOCCOCCOCCNc3cccc4c3C(=O)N(C3CCC(=O)NC3=O)C4=O)C2)n2ncc(Cl)c2n1` (stereo partly drawn) [Compound 13.0, 4-[2-[2-[2-[2-[2-[[(1S,3S)-3-[[3-chloro-5-(1-ethylpropyl)pyrazolo[1,5-a]pyrimidin-7-yl]amino]cyclopentyl]amino]ethoxy]ethoxy]ethoxy]ethoxy]ethylamino]-2-(2,6-dioxo-3-piperidyl)isoindoline-1,3-dione], the half-maximal degradation concentration (DC50) is below 10 µM.

As to `CCC(CC)c1cc(N[C@H]2CC[C@H](NCC(=O)NCCCn3cc(CCOCCNc4cccc5c4C(=O)N(C4CCC(=O)NC4=O)C5=O)nn3)C2)n2nccc2n1` (stereo partly drawn) [Compound 20.0], the 50% degradation concentration (DC50) is above 10 µM. Regarding `CCC(CC)c1cc(N[C@H]2CC[C@H](NCc3cn(CCOCCOCCOCCNc4cccc5c4C(=O)N(C4CCC(=O)NC4=O)C5=O)nn3)C2)n2nccc2n1` (stereo partly drawn) [Compound 10.0, 2-(2,6-dioxo-3-piperidyl)-4-[2-[2-[2-[2-[4-[[[(1S,3S)-3-[[5-(1-ethylpropyl)pyrazolo[1,5-a]pyrimidin-7-yl]amino]cyclopentyl]amino]methyl]triazol-1-yl]ethoxy]ethoxy]ethoxy]ethylamino]isoindoline-1,3-dione], the 50% degradation concentration (DC50) is below 10 µM.

`CCC(CC)c1cc(N[C@H]2CC[C@H](NCC(=O)NCc3cn(CCOCCOCCOCC(=O)N[C@H](C(=O)N4C[C@H](O)C[C@H]4C(=O)NCc4ccc(-c5scnc5C)cc4)C(C)(C)C)nn3)C2)n2nccc2n1` [Compound 27.0]: the DC50 is above 10 µM. The same measure for `CCC(CC)c1cc(N[C@H]2CC[C@H](NCC(=O)N3CCN(CCNc4cccc5c4C(=O)N(C4CCC(=O)NC4=O)C5=O)CC3)C2)n2ncc(Cl)c2n1` (stereo partly drawn) [Compound 49.0]: below 0.1 µM; for `CCC(CC)c1cc(N[C@H]2CC[C@H](NCC(=O)NCCCc3cn(CCOCCOCC(=O)N[C@H](C(=O)N4C[C@H](O)C[C@H]4C(=O)NCc4ccc(-c5scnc5C)cc4)C(C)(C)C)nn3)C2)n2ncc(Cl)c2n1` [Compound 44.0]: above 10 µM; for `CCC(CC)c1cc(N[C@H]2CC[C@H](NCC(=O)NCCCc3cn(CCOCCNc4cccc5c4C(=O)N(C4CCC(=O)NC4=O)C5=O)nn3)C2)n2nccc2n1` (stereo partly drawn) [Compound 22.0]: above 10 µM. Then `CCC(CC)c1cc(N[C@H]2CC[C@H](NCC(=O)NCc3cn(CCOCCOCCOCCOCCOc4cc(-c5scnc5C)ccc4CNC(=O)[C@@H]4C[C@@H](O)CN4C(=O)[C@H](C(C)C)N4Cc5ccccc5C4=O)nn3)C2)n2nccc2n1` [Compound 32.0], with above 10 µM; and `CCC(CC)c1cc(N[C@H]2CC[C@H](NCC(=O)NCc3cn(CCOCC(=O)N[C@H](C(=O)N4C[C@H](O)C[C@H]4C(=O)NCc4ccc(-c5scnc5C)cc4)C(C)(C)C)nn3)C2)n2nccc2n1` [Compound 25.0], with above 10 µM.

On to `CCC(CC)c1cc(N[C@H]2CC[C@H](NCC(=O)NCCCn3cc(CCOCCNc4cccc5c4C(=O)N(C4CCC(=O)NC4=O)C5=O)nn3)C2)n2ncc(Cl)c2n1` (stereo partly drawn) [Compound 24.0], for which the 50% degradation concentration (DC50) is below 1 µM. The same measure for `CCC(CC)c1cc(N[C@H]2CC[C@H](NC(=O)COCCOCCOCCNC(=O)COc3cccc4c3C(=O)N(C3CCC(=O)NC3=O)C4=O)C2)n2nccc2n1` (stereo partly drawn) [Compound 2.0, 2-[2-[2-[2-[[2-[2-(2,6-dioxo-3-piperidyl)-1,3-dioxo-isoindolin-4-yl]oxyacetyl]amino]ethoxy]ethoxy]ethoxy]-N-[(1S,3S)-3-[[5-(1-ethylpropyl)pyrazolo[1,5-a]pyrimidin-7-yl]amino]cyclopentyl]acetamide]: above 10 µM; for `CCC(CC)c1cc(N[C@H]2CC[C@H](NCCN3CCN(CCOCC(=O)N[C@H](C(=O)N4C[C@H](O)C[C@H]4C(=O)NCc4ccc(-c5scnc5C)cc4)C(C)(C)C)CC3)C2)n2nccc2n1` [Compound 18.0, (2S,4R)-1-[(2S)-2-[[2-[2-[4-[2-[[(1S,3S)-3-[[5-(1-ethylpropyl)pyrazolo[1,5-a]pyrimidin-7-yl]amino]cyclopentyl]amino]ethyl]piperazin-1-yl]ethoxy]acetyl]amino]-3,3-dimethyl-butanoyl]-4-hydroxy-N-[[4-(4-methylthiazol-5-yl)phenyl]methyl]pyrrolidine-2-carboxamide]: above 10 µM; for `CCC(CC)c1cc(N[C@H]2CC[C@H](NCCOCCOCCOCCOCCNc3cccc4c3C(=O)N(C3CCC(=O)NC3=O)C4=O)C2)n2nccc2n1` (stereo partly drawn) [Compound 8.0, 2-(2,6-dioxo-3-piperidyl)-4-[2-[2-[2-[2-[2-[[(1S,3S)-3-[[5-(1-ethylpropyl)pyrazolo[1,5-a]pyrimidin-7-yl]amino]cyclopentyl]amino]ethoxy]ethoxy]ethoxy]ethoxy]ethylamino]isoindoline-1,3-dione]: above 10 µM. The same measure for `CCC(CC)c1cc(N[C@H]2CC[C@H](NCCOCCOCCOCCn3cc(CNc4cccc5c4C(=O)N(C4CCC(=O)NC4=O)C5=O)nn3)C2)n2ncc(Cl)c2n1` (stereo partly drawn) [Compound 16.0]: above 10 µM. As for `CCC(CC)c1cc(N[C@H]2CC[C@H](NCC(=O)NCCCc3cn(CCOCCOCCOCC(=O)N[C@H](C(=O)N4C[C@H](O)C[C@H]4C(=O)NCc4ccc(-c5scnc5C)cc4)C(C)(C)C)nn3)C2)n2ncc(Cl)c2n1` [Compound 42.0], the DC50 is above 10 µM. The same measure for `CCC(CC)c1cc(N[C@H]2CC[C@H](NCC(=O)NCc3cn(CCOCCOCCOCCOc4cc(-c5scnc5C)ccc4CNC(=O)[C@@H]4C[C@@H](O)CN4C(=O)[C@H](C(C)C)N4Cc5ccccc5C4=O)nn3)C2)n2nccc2n1` [Compound 31.0]: above 10 µM.

On to `CCC(CC)c1cc(N[C@H]2CC[C@H](NC(=O)COCCOCCNC(=O)COc3cccc4c3C(=O)N(C3CCC(=O)NC3=O)C4=O)C2)n2nccc2n1` (stereo partly drawn) [Compound 1.0, 2-[2-[2-[[2-[2-(2,6-dioxo-3-piperidyl)-1,3-dioxo-isoindolin-4 yl]oxyacetyl]amino]ethoxy]ethoxy]-N-[(1S,3S)-3-[[5-(1-ethylpropyl)pyrazolo[1,5-a]pyrimidin-7-yl]amino]cyclopentyl]acetamide], for which the half-maximal degradation concentration (DC50) is above 10 µM.
